Assay results published in patent US20110088107A1, “COMPOSITIONS AND METHODS FOR DERIVING OR CULTURING PLURIPOTENT CELLS” (priority 2009, published 2011).

Legend:
129 EpiSC cells = test: Dependence of pluripotency on signaling pathways, EpiSC; assay type: cell-based, mouse; settings: epiESM, Day 6
Procedure: (§1) FIG. 21 illustrates the dependence of pluripotency states on distinct signaling pathways. 129 mES or EpiSC cell samples were equally divided and plated on irradiated MEFs in the indicated growth conditions (mESM or epiESM) in which these cell lines are normally maintained, and 24 hours later the wells were supplemented with either JAKi or ALKi or were kept without any inhibitor. Representative images at Day 6 of the experiment are shown. EpiSC cells as previously described, differentiated upon introduction of ALK inhibitors, while mES cells differentiate upon blocking of Stat3 signaling by the JAK inhibitor.

mEpiSCs = test: Signaling dependence of pluripotent cell lines, mEpiSCs; assay type: cell-based, mouse; settings: normal growth medium, inhibitor or factor added
Procedure: (§2) Pluripotent cells were equally divided and plated on feeders in the indicated growth medium in which these cell lines are normally maintained, and 36 hours later the wells were supplemented with the indicated inhibitors or growth factors. After seven days, wells were fixed and stained to determine the relative percentage of colonies positive for pluripotency markers. SSEA1 staining was used for mouse stem cells. Colony formation was normalized to an internal control “Growth medium” without inhibitors (first left column). Normalized percentages lower than 5% are defined as “sensitivity” to the presence of the supplemented inhibitor. (B-C) Western blot analysis of total ERK1/2, phosphorylated ERK1/2 (pERK1/2) and phosphorylated Stat3 (pStat3). WIBR3 hESC and C1 hiPSC were grown in traditional bFGF/Activin containing media while naive-hESC/hiPSCs were grown in N2B27 PD/CH/FOR/LIF. ‘2×LIF’ indicates two fold increase in LIF concentration. (D) LIF/Stat3 is required for stabilization of naive-hESC/hiPSCs. Naïve NOD mESCs, WIBR3.5 and WIBR3.1 naive-hESC, and C1 naïve-hiPSCs were electroporated with a pBRY-CAGGS-flox-DsRedT4-IP control plasmid, a plasmid encoding a dominant negative Stat3 Y705F mutant (Stat3-DN), or a plasmid Stat3-C constitutively active mutant (pBRY-Stat3-CA). Cells were passaged three times in the presence of puromycin. After 20 days, colonies positive for pluripotency markers were counted and normalized to colonies from cells electroporated with empty vector (n=3 replicates for each condition). (E) RT-PCR expression of early germ cell markers in the presence or absence of BMP4/7/8 cytokines for 7 days. (F) Representative FISH analysis for XIST RNA (red) and Cot1 nuclear RNA (green). Pri-WIBR3.2 cell line was analyzed after passaging in conventional bFGF/serum-containing human ESC growth conditions. Numbers indicate average percentage of XIST positive nuclei counted.
(§3) Small molecules and cytokines were purchased from Tocris, Calbiochem or Sigma, and were supplemented as indicated at the following final concentration: JAK inhibitor (JAKi, 6 μM), Kenpaullone (KP, 5 μM), PD0325901 (PD, 1 μM); CHIR99021 (CH, […]), Forskolin (FK, 10 μM), FGF4-Receptor inhibitors PD173074 (0.1 μM) and SU5401 (2 μM); TGFβ/ALK inhibitors A83-01 (1 μM), RepSox (1 μM), ALK inhibitor (ALKi—SB431542, 2 μM); AICAR (0.5 mM); BixO1294 (1 μM); BayK8644 (1 μM); recombinant human BMP4 (10 ng/ml), recombinant human IL-6 (10 ng/ml), recombinant human TGFβ (500 ng/ml), Media with inhibitors was routinely replaced every 48 hours to sustain activity of compounds.

naive-hESCs/hiPSCs = test: Signaling dependence of pluripotent cell lines, naive-hESC/hiPSC; assay type: cell-based, human; settings: grown in PD/CH/FK/LIF, inhibitor or factor added
Procedure: as §2, §3

mESCs = test: Signaling dependence of pluripotent cell lines, mESCs; assay type: cell-based, mouse; settings: normal growth medium, inhibitor or factor added
Procedure: Pluripotent cells were equally divided and plated on feeders in the indicated growth medium in which these cell lines are normally maintained, and 36 hours later the wells were supplemented with the indicated inhibitors or growth factors. After seven days, wells were fixed and stained to determine the relative percentage of colonies positive for pluripotency markers. SSEA1 staining was used for mouse stem cells. Colony formation was normalized to an internal control “Growth medium” without inhibitors (first left column). Normalized percentages lower than 5% are defined as “sensitivity” to the presence of the supplemented inhibitor. (B-C) Western blot analysis of total ERK1/2, phosphorylated ERK1/2 (pERK1/2) and phosphorylated Stat3 (pStat3). WIBR3 hESC and C1 hiPSC were grown in traditional bFGF/Activin containing media while naive-hESC/hiPSCs were grown in N2B27 PD/CH/FOR/LIF. ‘2×LIF’ indicates two fold increase in LIF concentration. (D) LIF/Stat3 is required for stabilization of naive-hESC/hiPSCs. Naïve NOD mESCs, WIBR3.5 and WIBR3.1 naive-hESC, and C1 naïve-hiPSCs were electroporated with a pBRY-CAGGS-flox-DsRedT4-IP control plasmid, a plasmid encoding a dominant negative Stat3 Y705F mutant (Stat3-DN), or a plasmid Stat3-C constitutively active mutant (pBRY-Stat3-CA). Cells were passaged three times in the presence of puromycin. After 20 days, colonies positive for pluripotency markers were counted and normalized to colonies from cells electroporated with empty vector (n=3 replicates for each condition). (E) RT-PCR expression of early germ cell markers in the presence or absence of BMP4/7/8 cytokines for 7 days. (F) Representative FISH analysis for XIST RNA (red) and Cot1 nuclear RNA (green). Pri-WIBR3.2 cell line was analyzed after passaging in conventional bFGF/serum-containing human ESC growth conditions. Numbers indicate average percentage of XIST positive nuclei counted. […]

hESCs = test: Signaling dependence of pluripotent cell lines, conventional hESCs; assay type: cell-based, human; settings: normal growth medium, inhibitor or factor added
Procedure: Pluripotent cells were equally divided and plated on feeders in the indicated growth medium in which these cell lines are normally maintained, and 36 hours later the wells were supplemented with the indicated inhibitors or growth factors. After seven days, wells were fixed and stained to determine the relative percentage of colonies positive for pluripotency markers. SSEA1 staining was used for mouse stem cells. Colony formation was normalized to an internal control “Growth medium” without inhibitors (first left column). […] (B-C) Western blot analysis of total ERK1/2, phosphorylated ERK1/2 (pERK1/2) and phosphorylated Stat3 (pStat3). WIBR3 hESC and C1 hiPSC were grown in traditional bFGF/Activin containing media while naive-hESC/hiPSCs were grown in N2B27 PD/CH/FOR/LIF. ‘2×LIF’ indicates two fold increase in LIF concentration. […] Cells were passaged three times in the presence of puromycin. […] (E) RT-PCR expression of early germ cell markers in the presence or absence of BMP4/7/8 cytokines for 7 days. (F) Representative FISH analysis for XIST RNA (red) and Cot1 nuclear RNA (green). Pri-WIBR3.2 cell line was analyzed after passaging in conventional bFGF/serum-containing human ESC growth conditions.

[1] = test system: naive human pluripotent stem cells; test: Long-term propagation of naive human pluripotent stem cells; assay type: cell-based; settings: genetically unmodified forskolin-dependent naive cells
Procedure: Naïve human pluripotent cells were grown in serum-free N2B27 based media. 500 ml of media was generated by including: 240 ml of DMEM/F12 (Invitrogen #11320), 240 ml of Neurobasal media (Invitrogen #21103), 5 ml of N2 supplement (Invitrogen #17502048), 10 ml B27 supplement (17504044), 10 μg of recombinant human LIF (Millipore, LIF1005), 1 mM glutamine (Invitrogen), 1% nonessential amino acids (Invitrogen), 0.1 mM β-mercaptoethanol (Sigma), pen/strep (Invitrogen), 5 mg/ml bovine serum albumin (Sigma) and small molecule inhibitors as indicated. Naïve-hESCs/hiPSCs were kept on mitomycin C (MMC)-inactivated mouse embryonic fibroblast (MEF) feeder cells, unless indicated otherwise, and where passage by single cell trypsinization every 5-10 days. Throughout the manuscript, indicated passage numbers of naïve-hiPSC/hESCs indicates number of passages counted after induction of the naïve state. The C1 secondary fibroblast cells (19), harbors Doxycycline (DOX) lentiviral vectors encoding Oct4, Sox2 and Klf4 reprogramming factors (45) and a constitutively active lentivirus encoding the reverse tetracycline transactivator (19), were grown in the presence of Dox in N2B27 media supplemented with different inhibitor combinations on gelatin coated plates, until initial PSC colonies were observed and subcloned. Mouse EpiSCs were derived and propagated as previously described (3,4). […]

129 mES cells = test: Dependence of pluripotency on signaling pathways, 129 mES; assay type: cell-based, mouse; settings: mESM, Day 6
Procedure: as §1

[2] = test system: VASA, BLIMP1 and DAZL in naive-hESCs; test: RT-PCR of early germ cell markers, naive-hESCs; assay type: cell-based, human; settings: 7 days
Procedure: (§4) Pluripotent cells were equally divided and plated on feeders in the indicated growth medium in which these cell lines are normally maintained, and 36 hours later the wells were supplemented with the indicated inhibitors or growth factors. After seven days, wells were fixed and stained to determine the relative percentage of colonies positive for pluripotency markers. SSEA1 staining was used for mouse stem cells. Colony formation was normalized to an internal control “Growth medium” without inhibitors (first left column). Normalized percentages lower than 5% are defined as “sensitivity” to the presence of the supplemented inhibitor. (B-C) Western blot analysis of total ERK1/2, phosphorylated ERK1/2 (pERK1/2) and phosphorylated Stat3 (pStat3). WIBR3 hESC and C1 hiPSC were grown in traditional bFGF/Activin containing media while naive-hESC/hiPSCs were grown in N2B27 PD/CH/FOR/LIF. ‘2×LIF’ indicates two fold increase in LIF concentration. (D) LIF/Stat3 is required for stabilization of naive-hESC/hiPSCs. […] After 20 days, colonies positive for pluripotency markers were counted and normalized to colonies from cells electroporated with empty vector (n=3 replicates for each condition). […] Pri-WIBR3.2 cell line was analyzed after passaging in conventional bFGF/serum-containing human ESC growth conditions. Numbers indicate average percentage of XIST positive nuclei counted. […]

[3] = test system: VASA, BLIMP1 and DAZL in hESCs; test: RT-PCR of early germ cell markers, hESCs; assay type: cell-based, human; settings: 7 days
Procedure: as §4

Molecule	effect on pluripotency of EpiSC cells (129 EpiSC cells)	effect on pluripotency of mEpiSCs (mEpiSCs)	effect on pluripotency of naive-hESCs/hiPSCs (naive-hESCs/hiPSCs)	effect on pluripotency of mESCs (mESCs)	effect on pluripotency of conventional hESCs (hESCs)	number of passages cells could be maintained [1]	effect on pluripotency of 129 mES cells (129 mES cells)	activation of germ cell markers VASA, BLIMP1 and DAZL in naive-hESCs [2]	activation of germ cell markers VASA, BLIMP1 and DAZL in hESCs [3]
NC(=O)c1ccc(-c2nc(-c3ccc4c(c3)OCO4)c(-c3ccccn3)[nH]2)cc1 [ALKi]	differentiated	rapidly differentiated	maintained their pluripotent state	maintained their pluripotent state	rapidly differentiated	–	–	–	–
C=C[C@@]1(C)CC(=O)[C@]2(O)[C@@]3(C)[C@@H](O)CCC(C)(C)[C@@H]3[C@H](O)[C@H](OC(C)=O)[C@@]2(C)O1 [Forskolin]	–	–	–	–	–	15-20 passages	–	–	–
CC(C)(C)c1nc2c3cc[nH]c(=O)c3c3cc(F)ccc3c2[nH]1 [JAKi]	–	–	readily differentiated	–	resistant	–	differentiate	–	–
BMP4: recombinant human BMP4 growth factor	–	resulted in the differentiation	but not of naive-hESCs/hiPSCs or mESCs	–	resulted in the differentiation	–	–	no up-regulation	readily activated
